{"source": "patent US10098852B2", "about": "(LAUNX BIOMEDICAL CO., LTD., priority 2014, dated 2018)", "key": {"[1]": {"system": "LoVo (Colorectal Adenocarcinoma)", "test": "Cell viability analysis (WST-1), colorectal cancer cell line LoVo", "format": "cell-based", "details": "Homo sapiens", "protocol": "(§1) The cell numbers were counted and reseed as 2×10^6 in cell culture plate/flask. Then, the culture medium was added to a volume of 10 ml, and the cells were cultured for 2-3 days. Then, the cells were suspended for loading into 96-well plates. The cell number was 3000/well and the volume of the culture medium was 100 μl each well.\n(§2) Removing the original culture medium from 96-well plate. Then add 100 μl of commercially drug at a concentration of 10 μM per well. After 72 hours, add the diluted WST-1 reagent to the well with 100 μl/well, and the diluted WST-1 reagent was acquired from the dilution of 9:1 medium and WST-1 stock reagent. Finally, the total volume of each well was 200 μl/well. Culture the 96-well plate at 37° C. for 30 to 90 minutes. Detecting and calculate the survival rate of each cancer cells with an ELISA reader at OD450 nm."}, "[2]": {"system": "bladder cancer cell", "test": "Summary of the effect on bladder cancer cell (TSGH, T24)", "format": "cell-based", "details": "bladder cancer cell (mean of TSGH and T24 averages), 72 hours, read-out: Inhibitory effect", "protocol": "as §2"}, "[3]": {"system": "H1650 (lung adenocarcinoma)", "test": "Cell viability analysis (WST-1), lung cancer cell line H1650", "format": "cell-based", "details": "Homo sapiens", "protocol": "as §1, §2"}, "[4]": {"system": "MCF7 (Mammary Gland, Adenocarcinoma)", "test": "Cell viability analysis (WST-1), breast cancer cell line MCF7", "format": "cell-based", "details": "Homo sapiens", "protocol": "as §1, §2"}, "[5]": {"system": "AsPC-1 (pancreatic cancer cell line)", "test": "Cell viability analysis (WST-1), pancreatic cancer cell line AsPC-1", "format": "cell-based", "details": "Homo sapiens", "protocol": "as §1, §2"}, "[6]": {"system": "MKN-45 (Gastric Adenocarcinoma)", "test": "Cell viability analysis (WST-1), gastric cancer cell line MKN-45", "format": "cell-based", "details": "Homo sapiens"}, "[7]": {"system": "gastric cancer cells (AGS) subcutaneous tumor", "test": "Animal model test of gastric cancer: tumor size", "format": "in vivo, mice (BALB/cAnN.Cg-Foxn1nu/CrlNarl)", "details": "for Tumor volume growth, average / tumor volume, average / Tumor volume growth / tumor longest length / tumor volume / tumor width: high dose (200 mg/kg/day) i.p. once daily; for Tumor volume growth, average / tumor volume, average: group average; for Tumor volume growth / tumor longest length / tumor volume / tumor width: individual mice A, B, C", "protocol": "In this invention, the female mice were (BALB/cAnN.Cg-Foxn1^nu/CrlNarl) purchased from National Laboratory Animal Center (Taiwan)). The weight of the mice were 21±1 g. These mice were subcutaneously injected with gastric cancer cells (AGS) and then put these mice into different cages at random. The drug test experiment was divided into three groups, include “control group”, “low dose group (100 mg/kg/day)”, and “high dose group (200 mg/kg/day)”. These mice were then injected test drug intraperitoneally once daily […]. The tumor sizes and body weight were measured twice a week. The tumor sizes were measured and calculated by formula: (L×W^2)/2. L represents the tumor longest length. W represents the tumor shortest diameter."}, "[8]": {"details": "First measurement, 200 mg/kg/day"}}, "note": "“And” between values parts separate entries of the source, which are not always exact repeats. Identical values can stand only once. Like-named read-outs stand apart in the source and are kept apart here.", "data": [{"smiles": "Oc1ccc(OCc2ccccc2)cc1", "note": "[Monobenzone]", "values": [{"measurement": "viability at 10 µM", "setting": "[1]; 72 h, average of 4 tests, read-out: inhibition effect (survival rate of cells), average", "result": 83, "unit": "%"}, {"measurement": "viability at 10 µM", "setting": "[1]; 72 hours, test 0616-10 min, read-out: inhibition effect (survival rate of cells)", "result": 82.3, "unit": "%"}, {"measurement": "viability at 10 µM", "setting": "[1]; 72 hours, test 0619-10 min, read-out: inhibition effect (survival rate of cells)", "result": 73.9, "unit": "%"}, {"measurement": "viability at 10 µM", "setting": "[1]; 72 hours, test 0621-10 min, read-out: inhibition effect (survival rate of cells)", "result": 94.7, "unit": "%"}, {"measurement": "viability at 10 µM", "setting": "[1]; 72 hours, test 0623-10 min, read-out: inhibition effect (survival rate of cells)", "result": 81.3, "unit": "%"}, {"measurement": "viability at 10 µM", "setting": "[2]", "result": 85.8, "unit": "%"}, {"measurement": "viability at 10 µM", "setting": "[3]; NCI-H1650, 72 h, H1650, 10 μM, average of 4 tests, read-out: inhibition effect (survival rate of cells), Average", "result": 86.3, "unit": "%"}, {"measurement": "viability at 10 µM", "setting": "[3]; NCI-H1650, H1650, 10 μM, 72 hours, test 1-10 min, read-out: inhibition effect (survival rate of cells)", "result": 90.1, "unit": "%"}, {"measurement": "viability at 10 µM", "setting": "[3]; NCI-H1650, H1650, 10 μM, 72 hours, test 2-20 min, read-out: inhibition effect (survival rate of cells)", "result": 66.6, "unit": "%"}, {"measurement": "viability at 10 µM", "setting": "[3]; NCI-H1650, H1650, 10 μM, 72 hours, test 3-20 min, read-out: inhibition effect (survival rate of cells)", "result": 86.7, "unit": "%"}, {"measurement": "viability at 10 µM", "setting": "[3]; NCI-H1650, H1650, 10 μM, 72 hours, test 4-20 min, read-out: inhibition effect (survival rate of cells)", "result": 102, "unit": "%"}, {"measurement": "viability at 10 µM", "setting": "[4]; MCF7, 72 h, MCF7, 10 μM, average of 4 tests, read-out: inhibition effect (survival rate of cells), average", "result": 95.7, "unit": "%"}, {"measurement": "viability at 10 µM", "setting": "[4]; MCF7, MCF7, 10 μM, 72 hours, test 0612-10 min, read-out: inhibition effect (survival rate of cells)", "result": 107, "unit": "%"}, {"measurement": "viability at 10 µM", "setting": "[4]; MCF7, MCF7, 10 μM, 72 hours, test 0614-10 min, read-out: inhibition effect (survival rate of cells)", "result": 88.8, "unit": "%"}, {"measurement": "viability at 10 µM", "setting": "[4]; MCF7, MCF7, 10 μM, 72 hours, test 0616-10 min, read-out: inhibition effect (survival rate of cells)", "result": 80.6, "unit": "%"}, {"measurement": "viability at 10 µM", "setting": "[4]; MCF7, MCF7, 10 μM, 72 hours, test 0619-10 min, read-out: inhibition effect (survival rate of cells)", "result": 106, "unit": "%"}, {"measurement": "viability at 10 µM", "setting": "[5]; ASPC1, 72 h, AsPC-1, 10 μM, average of 4 tests, read-out: inhibition effect (survival rate of cells), average", "result": 95.1, "unit": "%"}, {"measurement": "viability at 10 µM", "setting": "[5]; ASPC1, AsPC-1, 10 μM, 72 hours, test 1-4-30 min, read-out: inhibition effect (survival rate of cells)", "result": 93.7, "unit": "%"}, {"measurement": "viability at 10 µM", "setting": "[5]; ASPC1, AsPC-1, 10 μM, 72 hours, test 1-7-3-30 min, read-out: inhibition effect (survival rate of cells)", "result": 88.7, "unit": "%"}, {"measurement": "viability at 10 µM", "setting": "[5]; ASPC1, AsPC-1, 10 μM, 72 hours, test 1-7-4-30 min, read-out: inhibition effect (survival rate of cells)", "result": 116, "unit": "%"}, {"measurement": "viability at 10 µM", "setting": "[5]; ASPC1, AsPC-1, 10 μM, 72 hours, test 1-7-7-30 min, read-out: inhibition effect (survival rate of cells)", "result": 81.7, "unit": "%"}, {"measurement": "viability at 10 µM", "setting": "[6]; MKN-45, 72 h, MKN-45, 10 μM, average of 4 tests, read-out: inhibition effect (survival rate of cells), average", "result": 97.2, "unit": "%"}, {"measurement": "viability at 10 µM", "setting": "[6]; MKN-45, MKN-45, 10 μM, 72 hours, test 0510-10 min, read-out: inhibition effect (survival rate of cells)", "result": 89.2, "unit": "%"}, {"measurement": "viability at 10 µM", "setting": "[6]; MKN-45, MKN-45, 10 μM, 72 hours, test 0512-10 min, read-out: inhibition effect (survival rate of cells)", "result": 107, "unit": "%"}, {"measurement": "viability at 10 µM", "setting": "[6]; MKN-45, MKN-45, 10 μM, 72 hours, test 0517-10 min, read-out: inhibition effect (survival rate of cells)", "result": 91.3, "unit": "%"}, {"measurement": "inhibition effect on tumor cells (in words)", "setting": "[7]; both low dose (100 mg/kg/day) and high dose (200 mg/kg/day), FIG. 2", "result": "significant inhibition effect on tumor cells"}, {"measurement": "Tumor volume growth, average", "setting": "[7]; Fifth measurement", "result": 0, "unit": "mm3"}, {"measurement": "tumor volume, average", "setting": "[7]; Fifth measurement", "result": 0, "unit": "mm3"}, {"measurement": "Tumor volume growth", "setting": "[7]; Fifth measurement", "result": 0, "unit": "mm3"}, {"measurement": "tumor longest length", "setting": "[7]; Fifth measurement", "result": 0, "unit": "mm"}, {"measurement": "tumor volume", "setting": "[7]; Fifth measurement", "result": 0, "unit": "mm3"}, {"measurement": "tumor width", "setting": "[7]; Fifth measurement", "result": 0, "unit": "mm"}, {"measurement": "Tumor volume growth, average", "setting": "[7]; First measurement", "result": 25.67, "unit": "mm3"}, {"measurement": "tumor volume, average", "setting": "[7]; First measurement", "result": 25.67, "unit": "mm3"}, {"measurement": "Tumor volume growth", "setting": "[7]; [8]", "result": "18 mm3 and 27 mm3 and 32 mm3"}, {"measurement": "tumor longest length", "setting": "[7]; [8]", "result": "4 mm (2×) and 6 mm"}, {"measurement": "tumor volume", "setting": "[7]; [8]", "result": "18 mm3 and 27 mm3 and 32 mm3"}, {"measurement": "tumor width", "setting": "[7]; [8]", "result": "3 mm (2×) and 4 mm"}, {"measurement": "Tumor volume growth, average", "setting": "[7]; Fourth measurement", "result": "−50", "unit": "mm3"}, {"measurement": "tumor volume, average", "setting": "[7]; Fourth measurement", "result": 0, "unit": "mm3"}, {"measurement": "tumor longest length", "setting": "[7]; Fourth measurement", "result": 0, "unit": "mm"}, {"measurement": "tumor volume", "setting": "[7]; Fourth measurement", "result": 0, "unit": "mm3"}, {"measurement": "tumor width", "setting": "[7]; Fourth measurement", "result": 0, "unit": "mm"}, {"measurement": "Tumor volume growth", "setting": "[7]; Fourth measurement, 200 mg/kg/day", "result": "−87.5 mm3 and −62.5 mm3 and 0 mm3"}, {"measurement": "Tumor volume growth, average", "setting": "[7]; Second measurement", "result": 57.67, "unit": "mm3"}, {"measurement": "tumor volume, average", "setting": "[7]; Second measurement", "result": 83.33, "unit": "mm3"}, {"measurement": "tumor width", "setting": "[7]; Second measurement", "result": 5, "unit": "mm"}, {"measurement": "Tumor volume growth", "setting": "[7]; Second measurement, 200 mg/kg/day", "result": "69.5 mm3 and 48 mm3 and 55.5 mm3"}]}]}
